The values that follow come from PMC9176691, “Design, synthesis and biological evaluation of novel diosgenin–benzoic acid mustard hybrids with potential anti-proliferative activities in human hepatoma HepG2 cells” (Journal of Enzyme Inhibition and Medicinal Chemistry, 2022).

The test system of one assay is HepG2 cells. The experiment in a line: MTT anti-proliferative assay, HepG2. The note with it: read-out: IC50 HepG2. In kind it is cell-based, human. A general note: Tetrazolium assays rely on reduction of a dye to a coloured formazan, in cell work by metabolically active cells.
In a further assay the test system is MCF-7 cells. The assay can be described thus: MTT anti-proliferative assay, MCF-7. In kind it is cell-based, human. The following applies: Homo sapiens, read-out: IC50 MCF-7.
The next assay has as its system HeLa cells. The experiment in a line: MTT anti-proliferative assay, HeLa. In kind it is cell-based. The note with it: Homo sapiens, read-out: IC50 HeLa.
The test system of the next assay is GES-1 cells. The experiment in a line: MTT cytotoxicity assay, normal GES-1. It counts as cell-based, human. The note with it: for IC50: Homo sapiens, read-out: IC50 GES-1.
Where [1] appears, read: MTT, 48 h treatment, average ± SD of three independent experiments.

Read-outs that look alike come from different tables or passages of the source.

In general, IC50 refers to the concentration that inhibits the measured activity by half.

With `C[C@H](CC[C@H]1OC2C[C@H]3[C@@H]4CC=C5C[C@@H](O)CC[C@]5(C)C4CC[C@]3(C)C2[C@@H]1C)COC(=O)c1ccc(N(CCCl)CCCl)cc1` (stereo partly drawn) [Compound 8, (22 R,25R)-3β-hydroxy-5-en-furostan-26–4-(bis(2-chloroethyl)amino)benzoate], the IC50 was > 50 µM in the assay with HepG2 cells (Homo sapiens, HepG2, 48 h); > 50 µM with MCF-7 cells (MCF7, 48 h); > 50 µM in the assay on HeLa cells (48 h); > 100 µM in the assay on GES-1 cells (GES1, 48 h).

For `C[C@H](CC[C@H]1OC2C[C@H]3[C@@H]4CC=C5C[C@@H](OC(=O)c6ccc(N(CCCl)CCCl)cc6)CC[C@]5(C)C4CC[C@]3(C)C2[C@@H]1C)COC(=O)c1ccc(N(CCCl)CCCl)cc1` (stereo partly drawn) [Compound 9, (22 R,25R)-3β-((4-(bis(2-chloroethyl)amino)benzoyl)oxy)-5-en-furostan-26–4-(bis(2-chloroethyl)amino) benzoate], the IC50 in the assay with HepG2 cells (Homo sapiens, HepG2, 48 h) is > 50 µM; in the assay on MCF-7 cells (MCF7, 48 h) it was > 50 µM; in the assay with HeLa cells (48 h), > 50 µM; with GES-1 cells (GES1, 48 h), > 100 µM.

Turning to `CC(=O)O[C@H]1CC[C@@]2(C)C(=CC[C@@H]3C2CC[C@]2(C)C4C(C[C@@H]32)O[C@H](CC[C@@H](C)COC(=O)c2ccc(N(CCCl)CCCl)cc2)[C@H]4C)C1` (stereo partly drawn) [Compound 10, (22 R,25R)-3β-acetoxy-5-en-furostan-26–4-(bis(2-chloroethyl)amino)benzoate], the IC50 was > 50 µM in the assay with HepG2 cells (Homo sapiens, HepG2, 48 h); 28.1 ± 1.52 µM in the assay with MCF-7 cells (MCF7, 48 h); > 50 µM in the assay with HeLa cells (48 h); > 100 µM in the assay on GES-1 cells (GES1, 48 h).

For `CC(=O)OC1CCC2(C)C(=CCC3C2CCC2(C)C3CC3OC(CCC(C)C(=O)NCCNC(=O)c4ccc(N(CCCl)CCCl)cc4)C(C)C32)C1` [Compound 14a, (22 R,25R)-(2-aminoethyl-4-(bis(2-chloroethyl)amino)benzamido)-3β-acetoxy-5-en-furostan-26-amide], the IC50 is 10.2 ± 1.01 µM in the assay with HepG2 cells (Homo sapiens, HepG2, 48 h); 48.3 ± 2.21 µM with MCF-7 cells (MCF7, 48 h); 17.2 ± 2.81 µM in the assay with HeLa cells (48 h); > 100 µM in the assay with GES-1 cells (GES1, 48 h).

`CC(=O)OC1CCC2(C)C(=CCC3C2CCC2(C)C3CC3OC(CCC(C)C(=O)NCCCNC(=O)c4ccc(N(CCCl)CCCl)cc4)C(C)C32)C1` [Compound 14b, (22 R,25R)-(3-aminopropyl-4-(bis(2-chloroethyl)amino)benzamido)-3β-acetoxy-5-en-furostan-26-amide]: the IC50 is 25.3 ± 1.4 µM with HepG2 cells (Homo sapiens, HepG2, 48 h); 30.3 ± 2.08 µM in the assay with MCF-7 cells (MCF7, 48 h); > 100 µM with HeLa cells (48 h); 47 ± 2.34 µM in the assay with GES-1 cells (GES1, 48 h). In the assay on GES-1 cells, this molecule showed an SI of 1.86.

For `CC(=O)OC1CCC2(C)C(=CCC3C2CCC2(C)C3CC3OC(CCC(C)C(=O)N4CCN(C(=O)c5ccc(N(CCCl)CCCl)cc5)CC4)C(C)C32)C1` [Compound 14e, (22 R,25R)-(1-piperazinyl-4-(bis(2-chloroethyl)amino)benzamido)-3β-acetoxy-5-en-furostan-26-amide], the IC50 was 19.3 ± 1.29 µM in the assay on HepG2 cells (Homo sapiens, HepG2, 48 h); 42.7 ± 2.25 µM with MCF-7 cells (MCF7, 48 h); > 50 µM in the assay on HeLa cells (48 h); 58.8 ± 1.34 µM in the assay with GES-1 cells (GES1, 48 h). Also, the SI in the assay with GES-1 cells came to 3.05.

Turning to `CC(CCC1OC2CC3C4CC=C5CC(O)CCC5(C)C4CCC3(C)C2C1C)C(=O)NCCNC(=O)c1ccc(N(CCCl)CCCl)cc1` [Compound 15a, (22 R,25R)-(2-aminoethyl-4-(bis(2-chloroethyl)amino)benzamido)-3β-hydroxy-5-en-furostan-26-amide], the IC50 in the assay with HepG2 cells (Homo sapiens, HepG2, 48 h) is 13.2 ± 1.01 µM; in the assay on MCF-7 cells (MCF7, 48 h), > 100 µM; in the assay on HeLa cells (48 h) it was > 50 µM; with GES-1 cells (GES1, 48 h), 83.2 ± 3.12 µM. Further, in the assay with GES-1 cells, the SI turned out to be 6.28.

Turning to `CC(CCC1OC2CC3C4CC=C5CC(O)CCC5(C)C4CCC3(C)C2C1C)C(=O)NCCCNC(=O)c1ccc(N(CCCl)CCCl)cc1` [Compound 15b, (22 R,25R)-(3-aminopropyl-4-(bis(2-chloroethyl)amino)benzamido)-3β-hydroxy-5-en-furostan-26-amide], the IC50 was 14 ± 1.15 µM in the assay with HepG2 cells (Homo sapiens, HepG2, 48 h); 37.2 ± 2.23 µM with MCF-7 cells (MCF7, 48 h); 49.8 ± 2.13 µM in the assay on HeLa cells (48 h); > 100 µM with GES-1 cells (GES1, 48 h). For the same molecule, the SI in the assay with GES-1 cells was >7.14.

Take `CC(CCC1OC2CC3C4CC=C5CC(O)CCC5(C)C4CCC3(C)C2C1C)C(=O)N1CCN(C(=O)c2ccc(N(CCCl)CCCl)cc2)CC1` [Compound 15e, (22 R,25R)-(1-piperazinyl-4-(bis(2-chloroethyl)amino)benzamido)-3β-hydroxy-5-en-furostan-26-amide]: the IC50 is 14 ± 1.12 µM with HepG2 cells (Homo sapiens, HepG2, 48 h); > 50 µM with MCF-7 cells (MCF7, 48 h); 28.5 ± 2.13 µM in the assay with HeLa cells (48 h); > 100 µM in the assay on GES-1 cells (GES1, 48 h).

On to `CC(CCC1OC2CC3C4CC=C5CC(O)CCC5(C)C4CCC3(C)C2C1C)C(=O)N1CCCN(C(=O)c2ccc(N(CCCl)CCCl)cc2)CC1` [Compound 15f, (22 R,25R)-(4–(1-homopiperazinyl)-4-(bis(2-chloroethyl)amino)benzamido)-3β-hydroxy-5-en-furostan-26-amide], for which the IC50 in the assay on HepG2 cells (Homo sapiens, HepG2, 48 h) is 18.9 ± 0.93 µM; in the assay on MCF-7 cells (MCF7, 48 h), > 100 µM; with HeLa cells (48 h), > 50 µM; in the assay with GES-1 cells (GES1, 48 h), > 100 µM. The SI with GES-1 cells is on record as >5.28.

As for `C[C@@H]1CC[C@@]2(OC1)O[C@H]1C[C@H]3[C@@H]4CC=C5C[C@@H](O)CC[C@]5(C)[C@H]4CC[C@]3(C)[C@H]1[C@@H]2C` [Diosgenin], the IC50 in the assay on HepG2 cells (Homo sapiens, HepG2, 48 h, MTT, 48 h treatment, average ± SD of three independent experiments) was 32.6 µM; in the assay with HepG2 cells (setting [1]), 33.9 ± 1.37 µM; in the assay on MCF-7 cells (MCF7, MTT, 48 h treatment, average ± SD of three independent experiments) it was 23.9 ± 1.34 µM; with HeLa cells (setting [1]), 55.1 ± 2.11 µM; with GES-1 cells (GES1, MTT, 48 h treatment, normal gastric epithelial cells, average ± SD of three independent experiments) it was > 100 µM. Besides, in the assay on GES-1 cells (SI = IC50 for GES-1 cell line/IC50 for HepG2 cell line), the SI is >2.95.

Turning to `CO[C@@]12[C@H](COC(N)=O)C3=C(C(=O)C(C)=C(N)C3=O)N1C[C@@H]1N[C@@H]12` [Mitomycin C, reference compound], the concentration for half-maximal inhibition (IC50) worked out at 32.6 ± 1.22 µM in the assay with HepG2 cells (Homo sapiens, HepG2, 48 h); 16.7 ± 1.02 µM with MCF-7 cells (MCF7, 48 h); 22 ± 1.12 µM in the assay on HeLa cells (48 h); 23.4 ± 1.11 µM with GES-1 cells (GES1, 48 h). This molecule had an SI with GES-1 cells of 0.72.
